The text below walks through data of patent US5578445A, “In vitro method of evaluating the effects of a substance” (priority 1991, dated 1996).

The experiment relates to ZR 75-1. In words: Proliferation, amount of ATP after 6 days, ZR 75-1. It is filed as cell-based, human. As to the method: The growth is determined by measuring the amount of ATP in the cells after incubation with ligands for 6 days. […]
Samples of the cells ZR 75-1 (8000 cells/well) and MCF7 (4000 cells/well), respectively, were distributed into microtiter plates having 96 wells.
The following hormone additions were made:
The medium was replaced by fresh medium of the same composition as on day 6, and hormone additions as on day 6.
6 days after hormone addition the number of cells and their morphology were investigated. Medium from each well was poured off. To each well was added 100 μl 1% TCA (trichloro acetic acid).

As to `O=C(c1ccc(OCCN2CCCC2)cc1)c1c(-c2ccc(O)cc2)sc2cc(O)ccc12` [LY 117018], where the note is “0.1 nM E2 and 10 nM LY 117018”, the inhibition of growth result is given as “inhibited down to the same level as in the absence of added hormone”. Moreover, where the note is “10^-7 M LY 117018, presence of 10^-10 M E2”, the function on growth result is given as “functions as an antagonist”. Further, the activity at 1 µM (Homo sapiens, ZR-75-1, 144 h, + 10^-6 M LY 117018, -E2, 6 days, read-out: relative amount of ATP (no hormone added = 1)) is 69%. For the same compound, the activity at 0.1 µM (Homo sapiens, ZR-75-1, 144 h, + 10^-7 M LY 117018, -E2, 6 days, read-out: relative amount of ATP (no hormone added = 1)) was determined as 99%. Moreover, the activity at 0.01 µM (Homo sapiens, ZR-75-1, 144 h, + 10^-8 M LY 117018, -E2, 6 days, read-out: relative amount of ATP (no hormone added = 1)) came out at 89%. Under “Homo sapiens, ZR-75-1, 144 h, + 10^-9 M LY 117018, -E2, 6 days, read-out: relative amount of ATP (no hormone added = 1)”, the activity at 0.001 µM was found to be 103%. In addition, where the note is “presence of 0.1 nM E2”, the “antagonist strength compared with Tamoxifen, growth” value was “stronger antagonist than Tamoxifen”.
